In PMC5797143, “Epigenetic modulation of inflammation and synaptic plasticity promotes resilience against stress in mice” (Nature Communications, 2018):

How the values were obtained:
[1] = test system: CpG-rich sequences of mouse IL-6 promoter and introns 1, 3; test: CpG-free luciferase reporter with IL-6 promoter/intron CpG-rich segments in N2a cells; format: cell-based; conditions: 24 h
Procedure: To investigate how DHCA may attenuate IL-6 generation, we tested the effect of DHCA on Toll-like receptor-4 mediated signaling pathways. PBMCs were pretreated with DHCA and stimulated with LPS using the same protocol as during screening. Samples were taken at 0, 30 min, 60 min, 6 h and 16 h following LPS stimulation and cell lysates were subjected to a multiplex ELISA assay. […] Based on evidence that DNA methylation at a single CpG in the human IL-6 promoter region effectively alters IL-6 expression, we next tested whether DHCA can modulate IL-6 gene expression through methylation mechanisms. We treated PBMC cells with DHCA and measured the expression of enzymes essential for DNA methylation/demethylation. […] To investigate how methylation influences IL-6 gene expression, we employed the CpG-free luciferase reporter system. We cloned a ~280 bp CpG rich DNA segment from the mouse IL-6 promoter into a promoterless CpG-free reporter construct and transfected into N2a cells. We found the CpG-rich IL-6 promoter segment presented no inherent promoter activity as reflected by no differences in luciferase activity compared to the control construct (Fig. 2f). […] We then cloned CpG rich DNA segments from IL-6 introns 1, 3 or 4 into the CpG-free luciferase reporter construct with a minimal EF1 promoter and no enhancer activity. […] In contrast, the CpG-rich region of IL-6 intron 4 presented no observable enhancer activity (Fig. 2g). […] To test whether DHCA may influence the expression of other pro-inflammatory factors, we measured the level of secreted cytokines following LPS stimulation (Supplementary Fig. 3).
CpG-rich motif from mouse IL-6 promoter and intron 1, intron 3, and intron 4 were cloned into basic (no promoter or enhancer) or promoter (minimal EF1 promoter with no enhancer) pCpG-free Lucia plasmid (InvivoGen) using In-Fusion Cloning Kit (Clontech Laboratories). Plasmids were prepared in E. coli GT115 cells and expressed in N2A neuoblastoma cells using lipofectamine 2000 (ThermoFisher) according to manufacturer’s instruction. Following overnight recovery, cells were subjected to 5 µM of methylation inhibitor 5-Aza-2′-deoxycytidine (AZA-DC) or DHCA treatment. Twenty-four hours later, 10 µl of medium was incubated with 50 µl of QUANTI-Luc luciferase substrate for luciferase activity assessment.

[2] = test system: stress susceptible C57BL/6 mice after RSDS; test: RSDS, therapeutic treatment of susceptible mice; format: in vivo, mouse; conditions: Imipramine 20 mg/kg-BW/day i.p. for 35 days
Description: To test the therapeutic efficacy of DHCA/Mal-gluc, we induced depression-like behavior using two different methods. In the first set of studies, mice were subjected to RSDS followed by SI test. All susceptible mice with SI ratio <0.8 were randomly grouped into vehicle or DHCA/Mal-gluc group. Following two weeks treatment, all mice were subjected to SI re-testing without further stress exposure (Fig. 5a). […] In a parallel study to compare the treatment efficacy with the tricylic antidepressant Imipramine, we treated the susceptible mice with Imipramine through i.p. injection for 35 days. […] We then examined the effect of DHCA/Mal-gluc on RSDS-induced anhedonia and an ethologically relevant self-neglect phenotype. […] We next measured the levels of IL-6 in plasma and Rac1 in the NAc after behavioral testing. […]
All social interaction (SI) tests were performed under red-light conditions. […] Their movements were automatically monitored and recorded (Ethovision 3.0; Noldus Information Technology) for 2.5 min in the absence (target absent phase) of a novel CD-1 mouse and followed by 2.5 min exploratory behavior in the presence of a caged CD-1 mouse (target present phase). SI behavior was then calculated as a ratio of the time spent in the interaction zone with the target present divided by the time spent in the interaction zone with the target absent. […]

[3] = in vivo, po; cited from earlier work

Compound	Detection in Brain [3]	Detection in Plasma [3]	other results
Nc1ncn([C@H]2C[C@H](O)[C@@H](CO)O2)c(=O)n1 [AZA-DC, 5-aza-2′-deoxycytidine]	–	–	luciferase expression, CpG-rich IL-6 promoter segment ([1]; 5 µM): no effect; luciferase (enhancer) activity, IL-6 intron 1 [1]: partially reduced; luciferase (enhancer) activity, IL-6 intron 3 [1]: totally abolished
CN(C)CCCN1c2ccccc2CCc2ccccc21 [Imipramine]	–	–	susceptible mice with resilient phenotype upon retesting [2]: about 50%
OMe-quercetin-glucuronide	+	+	–
OMe-resveratrol-glucuronide	+	+	–
quercetin-glucuroide	+	+	–
resveratrol-glucuronide	+	+	–
